Measurements as given in patent US10209240B2, “Predicting human developmental toxicity of pharmaceuticals using human stem-like cells and metabolomic ratios” (STEMINA BIOMARKER DISCOVERY, INC., priority 2012, dated 2019).
Where two headings read alike, the source gives them in different places.

Assays:
[1] = cited from earlier work
Rodent = details: cited from earlier work; for Rodent in vivo test results: Embryotoxic: embryotoxic effect in the absence of teratogenic effects and maternal toxicity; for Rodent in vivo test results: Teratogenic: structural malformations in the absence of maternal toxicity; for Rodent developmental toxicity testing, result in words: relation to maternal toxicity where stated
WA09 hES cells [2] = test system: WA09 hES cells
Procedure: Phase I hES Cell Compound Exposure. hES cells were treated with a test compound at a single concentration equivalent to the compound's published therapeutic Cmax. […] This was done to ensure that enough cells were present at the time of sample collection to provide a signal for LC-HRMS analysis. For test compound exposure, all compound stock solutions, with the exception of valproic acid, were made with DMSO (Sigma-Aldrich). […] Each 96-well plate included media controls with and without test compound, 0.1% DMSO solvent control cells and cells exposed to a single concentration of eight different test compounds (FIG. 1A). Media controls were included on each plate to assess the impact of test compound on the sample matrix. hES cells were exposed to the test compound for 72 hours, with media and test compound replacement every 24 hours. Cells were monitored throughout the treatment period to ensure that no differentiation was occurring. After 72 hours of treatment, the spent media from the final 24-hour treatment period was collected and added to acetonitrile (Sigma-Aldrich, final acetonitrile concentration 40%), to halt metabolic processes and precipitate proteins from solution. Individual wells from each 96-well plate were collected and analyzed as separate samples. These samples were then stored at −80° C. until prepared for LC-HRMS analysis. Cell viability was assessed using the CellTiter-Fluor Cell Viability Assay as per the manufacturer's instructions (Promega, Madison, Wis.). Quality control parameters were set such that if the coefficient of variation (CV) for the viability relative fluorescent units (RFU) of the 6 cellular samples in a treatment exceeded 10% and no outliers were identified using the Grubb's test (see the worldwide web at graphpad.com/quickcalcs/Grubbs1.cfm), analysis was halted for that compound and the cell culture experiment was repeated. If outliers were present, the outlier sample was removed from analysis. If the CV for the DMSO control cell samples on a plate were outside of the quality control parameters, the entire plate was repeated. hES cell exposure to each of the 23 compounds was replicated a total of nine times.
(§1) Phase 2 hES Cell Compound Exposure. […] The standard compound exposure levels used for most compounds were nine, 3-fold dilutions ranging from 0.04 μM-300 μM (FIG. 1B). […] The stock solution was diluted 1:1000 in mTeSR1 media and subsequent dilutions were performed in mTeSR1 containing 0.1% DMSO such that the final concentration of DMSO was 0.1% in all treatments. hES cells were treated for 72 hours and spent media from the last 24-hour treatment period was collected and added to acetonitrile containing ^13C6 labeled arginine (Cambridge Isotope Laboratories, Andover, Md.) as described under Phase 1. Spent media samples were stored at −80° C. until prepared for LC-HRMS analysis. Cell viability was assessed using the CellTiter-Fluor Cell Viability Assay. A quality control step was included with criteria that the CV of the measured viability RFU of the DMSO control cells could not exceed 10% for a plate to undergo LC-HRMS analysis. A dose response curve was fit to the reference treatment (0.1% DMSO treated control cells) normalized data (Viability RFUTrt X/Viability RFUDMSO) using a four-parameter log-logistic model with the R package “drc” (Ritz and Streibig, 2005, J Statistical Software; 12:1-22).
Phase 2 Prediction of Developmental Toxicity Potential. […] FIG. 2 illustrates how the assay is applied in this situation. A test compound is considered to be teratogenic at the exposure level where the o/c ratio exceeds the teratogenicity threshold (red box, FIG. 2).

WA09 hES cells [3] = test: Phase 2 targeted biomarker assay, ornithine/cystine ratio, 9-point dose response; details: for Teratogenicity Potential (μM) O/C Ratio: human, 72 h
From the text: Undifferentiated hES Cell Line Maintenance (Phases 1 and 2). WA09 hES cells were obtained from the WiCell Research Institute (Madison, Wis.) and were maintained in feeder free conditions using mTeSR1 media (StemCell Technologies, Inc., Vancouver, BC, Canada) on hESC-qualified Matrigel (BD Biosciences, San Jose, Calif.) coated 6-well plates. To maintain the undifferentiated stem cell population, differentiated colonies were removed daily through aspiration and media was replaced. Additionally, the hES cells were only used in experiments up to passage 40 and were karyotyped approximately every 10 passages to minimize and monitor the potential for genetic instability. hES cells were passaged at 90-95% confluency (approximately every 7 days) using Versene (Life Technologies, Grand Island, N.Y.). Cell cultures were maintained at 37° C. under 5% CO2.
96-well hES Cell Plating (Phases 1 and 2). All experimental treatments were carried out in 96-well plates. To minimize plating variability and increase reproducibility, hES cells were plated as a single cell suspension and maintained in an undifferentiated state during compound exposure. Prior to plating in the 96-well plates, hES cells were removed from a 6-well plate using TrypLE (Life Technologies). The cells were washed with DMEM/F12 (Life Technologies) and resuspended in mTeSR1 containing 10 μM Y27632 Rho-associated kinase (ROCK) inhibitor (Merck KGaA/Calbiochem, Darmstadt, Germany). The ROCK inhibitor is added to the plating media to increase plating efficiency by decreasing dissociation-induced apoptosis. The inner 60 wells of hESC-qualified Matrigel coated 96-well plates were seeded at a density of 100,000 cells per well. The outer wells of the plate contained an equal volume media to minimize differences in humidity across the plate. Compound exposure began 24 hours after plating.
as §1
Sample Preparation (Phases 1 and 2). High molecular weight constituents (>10 KDa) of the spent media samples were removed using a Millipore Multiscreen Ultracel-10 filter plate (EMD Millipore, Billerica, Mass.). Prior to sample filtration, the filter plate was washed with 0.1% NaOH to remove a known contaminant polymer. The plate was then rinsed twice with HPLC-grade water to remove residual polymers and NaOH. Spent media samples were added to the washed filter plate. In Phase 1, samples were spiked with ^13C6 labeled arginine. Samples were centrifuged at 2,000×g at 4° C. for 200 minutes. The filtrate was collected and concentrated overnight in a Savant High Capacity Speedvac Plus Concentrator.

Rabbit = details: cited from earlier work
[4] = summarized from TERIS and Briggs et al. 2011, cited from earlier work; for Preclinical in vivo developmental effects: application set compounds; for Preclinical in vivo and known human developmental effects: test set compounds
Humans = details: cited from earlier work
[5] = application set, peak plasma concentration in humans
[6] = test set, therapeutic peak plasma in vivo concentration, human

SMILES | Cmax [1, 5] | Rodent prediction (Rodent; application set) | Teratogenicity Potential (μM) Cell Viability (WA09 hES cells [2]; human, 72 h) | Targeted Biomarker Assay prediction (WA09 hES cells [3]) | Teratogenicity Potential (μM) O/C Ratio (WA09 hES cells [3]) | Rabbit prediction (Rabbit; application set) | Preclinical in vivo developmental effects [4] | Cmax [1, 6] | Humans (known human developmental toxicity) (Humans; training and test set) | other results
Nc1nc(NC2CC2)c2ncn([C@H]3C=C[C@@H](CO)C3)c2n1 [Abacavir] | 14.9 µM | TER | 94.1 µM | NON | 95.1 µM | NON | Skeletal, embryo toxicity^c | – | – | Rodent in vivo test results: Embryotoxic (Rodent; application set): +; Rodent in vivo test results: Teratogenic (Rodent; application set): +
Nc1nc2c(ncn2COCCO)c(=O)[nH]1 [Acycloguanosine] | – | – | >300 µM | NON | – | – | – | 3 µM | NON | Viability Prediction (WA09 hES cells [2]; test set, teratogenicity potential scored against therapeutic Cmax): NON
CC(C)(C)C(=O)OCOP(=O)(COCCn1cnc2c(N)ncnc21)OCOC(=O)C(C)(C)C [Adefovir dipivoxil] | 0.03 µM | – | – | TER | – | – | – | – | – | Rodent developmental toxicity testing, result in words (Rodent): only embryotoxic at exposure levels that also caused maternal toxicity; Teratogenicity Potential (μM) Cell Viability (WA09 hES cells [2]; application set, interpolated concentration where cell viability dose response curve crosses teratogenicity threshold 0.88, 72 hours): 0.02 µM
CC(C)CN(C[C@@H](O)[C@H](Cc1ccccc1)NC(=O)O[C@H]1CCOC1)S(=O)(=O)c1ccc(N)cc1 [Amprenavir] | 15.1 µM | TER | 259.5 µM | NON | 236.9 µM | TER | Skeletal, embryo toxicity^c | – | – | Rodent in vivo test results: Embryotoxic (Rodent; application set): +; Rodent in vivo test results: Teratogenic (Rodent; application set): +
C[C@H]1[C@H](OC(=O)CCC(=O)O)O[C@@H]2O[C@@]3(C)CC[C@H]4[C@H](C)CC[C@@H]1[C@@]24OO3 [Artesunate] | 73.9 µM | – | 0.58 µM | TER | – | – | – | – | – | –
COc1ccccc1Oc1c(NS(=O)(=O)c2ccc(C(C)(C)C)cc2)nc(-c2ncccn2)nc1OCCO [Bosentan] | – | – | 221.9 µM | NON | 44.9 µM | – | – | 2 µM | TER | Rodent prediction (Rodent; training and test set): TER; Viability Prediction (WA09 hES cells [2]): NON; O/C Ratio Prediction (WA09 hES cells [3]): NON; Rabbit prediction (Rabbit; training and test set): NON; Preclinical in vivo and known human developmental effects [4]: Craniofacial,
Cn1c(=O)c2c(ncn2C)n(C)c1=O [Caffeine] | – | – | >300 µM | – | – | – | – | – | – | Cmax ([1]; training set, therapeutic peak plasma in vivo concentration, human): 9.3 µM; Humans (known human developmental toxicity) (Humans; in vivo): NON
Nc1ccn(C[C@@H](CO)OCP(=O)(O)O)c(=O)n1 [Cidofovir] | 41.2 µM | NON | 1.9 µM | TER | 0.3 µM | NON | None | – | – | Rodent developmental toxicity testing, result in words (Rodent): only embryotoxic at exposure levels that also caused maternal toxicity
CCN(CC)C(=O)/C(C#N)=C/c1cc(O)c(O)c([N+](=O)[O-])c1 [Entacapone] | 3.9 µM | TER | 127 µM | TER | 6.7 µM | NON | Eye defects | – | – | Rodent in vivo test results: Teratogenic (Rodent; application set): +
CO[C@H]1C[C@@H]2CC[C@@H](C)[C@@](O)(O2)C(=O)C(=O)N2CCCC[C@H]2C(=O)O[C@H]([C@H](C)C[C@@H]2CC[C@@H](OCCO)[C@H](OC)C2)CC(=O)[C@H](C)/C=C(\C)[C@@H](O)[C@@H](OC)C(=O)[C@H](C)C[C@H](C)/C=C/C=C/C=C/1C [Everolimus] | – | – | 5.2 µM | TER | <0.04 µM | – | – | 0.02 µM | TER | Rodent prediction (Rodent; training and test set): TER; Viability Prediction (WA09 hES cells [2]): NON; Classification by o/c ratio in the targeted biomarker assay (WA09 hES cells [3]): classified as a teratogen; O/C Ratio Prediction (WA09 hES cells [3]): TER; Rabbit prediction (Rabbit; training and test set): NON; Preclinical in vivo and known human developmental effects [4]: Skeletal, embryo toxicity^c
CCC(=O)NCC[C@@H]1CCc2ccc3c(c21)CCO3 [Ramelteon] | 0.02 µM | NON | >300 µM | NON | 34 µM | NON | None | – | – | Rodent developmental toxicity testing, result in words (Rodent): only embryotoxic at exposure levels that also caused maternal toxicity
N[C@@H](CC(=O)N1CCn2c(nnc2C(F)(F)F)C1)Cc1cc(F)c(F)cc1F [Sitagliptin] | – | – | >300 µM | NON | 22.6 µM | – | – | 0.95 µM | NON | Rodent prediction (Rodent; training and test set): TER; Viability Prediction (WA09 hES cells [2]): NON; O/C Ratio Prediction (WA09 hES cells [3]): NON; Rabbit prediction (Rabbit; training and test set): NON; Preclinical in vivo and known human developmental effects [4]: Low doses: None; High
